Assay results published in DBAASP.
Values after ≈ are worked out from the molar mass of the structure shown. Values belong to the compound of their own block, whether it stands above or below them.

Columns and labels:
Assay in all cases: ≥ marks a high value that may be exact or a test limit, other limits are often not marked, values filed in µg/mL are converted to µM
[1] = tested on: Pseudomonas aeruginosa ATCC BAA-427
[2] = tested on: Klebsiella pneumoniae ATCC 27736
[3] = tested on: Bacillus subtilis ATCC 6633
[4] = tested on: Staphylococcus aureus NCTC 8325
[5] = tested on: Escherichia coli ATCC 25922
[6] = tested on: Candida albicans ATCC 90028
[7] = tested on: Pseudomonas aeruginosa H1001
Streptococcus mutans = tested on: Streptococcus mutans
Escherichia coli BL21 = tested on: Escherichia coli BL21
[8] = tested on: Staphylococcus epidermidis
Escherichia coli MG1655 = tested on: Escherichia coli MG1655

MIC [1]: 4 µM (≈ 10.3 µg/mL) | MIC [2]: 3 µM (≈ 7.76 µg/mL) | MIC [3]: 6 µM (≈ 15.5 µg/mL)
Compound: CC[C@H](C)[C@H](NC(=O)CNC(=O)[C@H](CCCN=C(N)N)NC(=O)[C@H](Cc1ccccc1)NC(=O)[C@@H](NC(=O)[C@H](Cc1cnc[nH]1)NC(=O)[C@H](Cc1cnc[nH]1)NC(=O)[C@H](Cc1ccccc1)NC(=O)[C@@H](N)Cc1ccccc1)[C@@H](C)CC)C(=O)N[C@H](C(=O)N[C@@H](Cc1cnc[nH]1)C(=O)N[C@H](C(=O)NCC(=O)N[C@@H](CCCCN)C(=O)N[C@H](C(=O)N[C@H](C(=O)N[C@@H](Cc1cnc[nH]1)C(=O)N[C@@H](CCCN=C(N)N)C(=O)N[C@@H](CC(C)C)C(=O)N[C@H](C(=O)N[C@H](C(=O)NCC(N)=O)[C@@H](C)O)C(C)C)[C@@H](C)CC)[C@@H](C)O)[C@@H](C)CC)C(C)C [FFHHIFRGIVHIGKTIHRLVTG]

MIC [1]: 12 µM (≈ 30.7 µg/mL) | MIC [2]: 6 µM (≈ 15.3 µg/mL) | MIC [3]: 8 µM (≈ 20.5 µg/mL)
Compound: CC[C@H](C)[C@H](NC(=O)CNC(=O)[C@H](CCCN=C(N)N)NC(=O)[C@H](Cc1ccccc1)NC(=O)[C@@H](NC(=O)[C@H](Cc1cnc[nH]1)NC(=O)[C@H](Cc1cnc[nH]1)NC(=O)[C@H](Cc1ccccc1)NC(=O)[C@@H](N)Cc1ccccc1)C(C)C)C(=O)N[C@H](C(=O)N[C@@H](Cc1cnc[nH]1)C(=O)N[C@H](C(=O)NCC(=O)N[C@@H](CCCCN)C(=O)N[C@H](C(=O)N[C@H](C(=O)N[C@@H](Cc1cnc[nH]1)C(=O)N[C@@H](CCCN=C(N)N)C(=O)N[C@@H](CC(C)C)C(=O)N[C@H](C(=O)N[C@H](C(=O)NCC(N)=O)[C@@H](C)O)C(C)C)[C@@H](C)CC)[C@@H](C)O)C(C)C)C(C)C [FFHHVFRGIVHVGKTIHRLVTG]

MIC [4]: ≥ 80 µM
Compound: CC(C)C[C@H](NC(=O)[C@@H](NC(=O)[C@H](CCCCN)NC(=O)[C@H](CO)NC(=O)[C@H](CC(C)C)NC(=O)[C@H](CC(C)C)NC(=O)[C@H](CO)NC(=O)[C@H](C)NC(=O)[C@H](CC(C)C)NC(=O)[C@H](Cc1ccccc1)NC(=O)[C@@H]1CCCN1C(=O)[C@H](CC(C)C)NC(=O)[C@@H](N)Cc1ccccc1)C(C)C)C(N)=O [FLPFLASLLSKVL]

MIC [5]: 50 µM (≈ 104 µg/mL) | MIC [4]: 6 µM (≈ 12.5 µg/mL) | MIC [6]: 13 µM (≈ 27.2 µg/mL)
Compound: CC[C@H](C)[C@@H]1NC(=O)[C@H](C)NC(=O)[C@@H](NC(=O)[C@@H](NC(=O)[C@@H](NC(=O)[C@H](CCCCN)NC(=O)[C@H](C)NC(=O)[C@H](C)NC(=O)[C@H](CCSC)NC(=O)CNC(=O)[C@H](C)NC(=O)[C@@H](NC(=O)[C@@H](NC(=O)[C@@H]2CCCN2C(=O)[C@H](CC(C)C)NC(=O)[C@@H](N)Cc2ccccc2)[C@@H](C)CC)[C@@H](C)CC)C(C)C)[C@@H](C)CC)CSSC[C@@H](C(=O)O)NC(=O)[C@H](CCCCN)NC(=O)[C@H](CCCCN)NC(=O)[C@H]([C@@H](C)O)NC1=O [FLPIIAGMAAKVICAITKKC]

MIC [7]: 10.1 µM (≈ 12.5 µg/mL)
Compound: CC[C@H](C)[C@H](N)C(=O)N[C@@H](CCCCN)C(=O)N[C@@H](CC(C)C)C(=O)N[C@@H](CC(C)C)C(=O)N[C@@H](CS)C(=O)N[C@@H](CCCN=C(N)N)C(=O)N[C@H](C(=O)N[C@@H](Cc1cnc[nH]1)C(=O)N[C@@H](CCCCN)C(=O)N[C@@H](CCCCN)C(=O)O)C(C)C [IKLLCRVHKK]

MIC (Streptococcus mutans): 3.9 µM (≈ 8 µg/mL)
Compound: CC(C)C[C@H](NC(=O)[C@H](CC(C)C)NC(=O)[C@H](CCCCN)NC(=O)[C@H](CCCCN)NC(=O)[C@H](CC(C)C)NC(=O)[C@@H](N)CCCCN)C(=O)N[C@@H](CCCCN)C(=O)N[C@@H](CCCN=C(N)N)C(=O)N[C@@H](Cc1c[nH]c2ccccc12)C(=O)N[C@@H](CCCN=C(N)N)C(=O)N[C@@H](CCCN=C(N)N)C(=O)N[C@@H](Cc1c[nH]c2ccccc12)C(=O)N[C@@H](Cc1c[nH]c2ccccc12)C(=O)N[C@@H](CCCN=C(N)N)C(=O)O [KLKKLLKRWRRWWR]

MIC [7]: ≥ 87.5 µM
Compound: NCCCC[C@H](NC(=O)[C@H](Cc1c[nH]c2ccccc12)NC(=O)[C@H](Cc1c[nH]c2ccccc12)NC(=O)[C@@H]1CCCN1C(=O)[C@H](Cc1c[nH]c2ccccc12)NC(=O)[C@@H](N)CCCCN)C(=O)N[C@@H](Cc1c[nH]c2ccccc12)C(=O)N[C@@H](CCCN=C(N)N)C(=O)N[C@@H](CCCN=C(N)N)C(N)=O [KWPWWKWRR]

MIC [7]: ≥ 42.4 µM
Compound: CC[C@H](C)[C@H](NC(=O)[C@H](CCCCN)NC(=O)[C@H](CCCCN)NC(=O)[C@H](Cc1cnc[nH]1)NC(=O)[C@@H](NC(=O)[C@H](CCCN=C(N)N)NC(=O)[C@H](CS)NC(=O)[C@H](CC(C)C)NC(=O)[C@@H](N)CC(C)C)C(C)C)C(=O)N[C@@H](C)C(=O)O [LLCRVHKKIA]

MIC (Escherichia coli BL21): 6 µM (≈ 21.5 µg/mL) | MIC [8]: 4 µM (≈ 14.3 µg/mL) | MIC (Escherichia coli MG1655): 12 µM (≈ 42.9 µg/mL)
Compound: CC[C@H](C)[C@H](NC(=O)[C@H](CCCCN)NC(=O)[C@H](CCCN=C(N)N)NC(=O)[C@H](CCCCN)NC(=O)[C@H](CCCCN)NC(=O)[C@H](CCCCN)NC(=O)[C@H](Cc1c[nH]c2ccccc12)NC(=O)[C@H](CCCCN)NC(=O)[C@H](CC(C)C)NC(=O)[C@H](Cc1c[nH]c2ccccc12)NC(=O)[C@H](CCCN=C(N)N)NC(=O)[C@H](CC(=O)O)NC(=O)[C@H](CCSC)NC(C)=O)C(=O)N[C@@H](CCCN=C(N)N)C(=O)N[C@@H](CCCN=C(N)N)C(=O)N[C@@H](CCCN=C(N)N)C(=O)N[C@@H](CCCN=C(N)N)C(=O)N[C@@H](CCCN=C(N)N)C(=O)N[C@@H](CCCN=C(N)N)C(=O)N[C@@H](CCCN=C(N)N)C(=O)N[C@@H](CCCN=C(N)N)C(=O)N[C@@H](CCCN=C(N)N)C(=O)N[C@@H](CCCN=C(N)N)C(=O)N[C@@H](CCCN=C(N)N)C(N)=O [MDRWLKWKKKRKIRRRRRRRRRRR]

MIC (Streptococcus mutans): 11.6 µM (≈ 32 µg/mL)
Compound: C[C@H](NC(=O)[C@H](CO)NC(=O)[C@H](C)NC(=O)[C@H](Cc1ccccc1)NC(=O)[C@H](Cc1c[nH]c2ccccc12)NC(=O)[C@H](Cc1c[nH]c2ccccc12)NC(=O)[C@H](Cc1c[nH]c2ccccc12)NC(=O)[C@H](CCCN=C(N)N)NC(=O)[C@H](CCCN=C(N)N)NC(=O)[C@@H](N)CCCN=C(N)N)C(=O)N[C@@H](CO)C(=O)N[C@@H](C)C(=O)N[C@@H](CCCN=C(N)N)C(=O)N[C@@H](CCCN=C(N)N)C(=O)N[C@@H](CCCN=C(N)N)C(=O)N[C@@H](Cc1c[nH]c2ccccc12)C(=O)N[C@@H](Cc1c[nH]c2ccccc12)C(=O)N[C@@H](Cc1c[nH]c2ccccc12)C(=O)N[C@@H](Cc1ccccc1)C(N)=O [RRRWWWFASASARRRWWWF]

MIC [7]: 0.0872 µM (≈ 0.21 µg/mL)
Compound: CC[C@H](C)[C@H](NC(=O)[C@H](CCCN=C(N)N)NC(=O)[C@H](CCCN=C(N)N)NC(=O)[C@@H]1CCCN1C(=O)CNC(=O)[C@H](CCCN=C(N)N)NC(=O)[C@@H]1CCCN1C(=O)[C@H](CCCN=C(N)N)NC(=O)[C@@H]1CCCN1C(=O)[C@H](CC(C)C)NC(=O)[C@H](Cc1ccc(O)cc1)NC(=O)[C@@H]1CCCN1C(=O)[C@@H]1CCCN1C(=O)[C@H](CCCCN)NC(=O)[C@H](CC(=O)O)NC(=O)[C@@H](N)C(C)C)C(=O)N[C@@H](Cc1ccc(O)cc1)C(=O)N[C@@H](CC(N)=O)C(=O)N[C@@H](CCCN=C(N)N)C(=O)NCC(=O)O [VDKPPYLPRPRGPRRIYNRG]

MIC [7]: 0.123 µM (≈ 0.3 µg/mL)
Compound: CC[C@H](C)[C@H](NC(=O)[C@H](CCCN=C(N)N)NC(=O)[C@H](CCCN=C(N)N)NC(=O)[C@@H]1CCCN1C(=O)[C@@H]1CCCN1C(=O)[C@H](CCCN=C(N)N)NC(=O)[C@@H]1CCCN1C(=O)[C@H](CCCN=C(N)N)NC(=O)[C@@H]1CCCN1C(=O)[C@H](CC(C)C)NC(=O)[C@H](Cc1ccc(O)cc1)NC(=O)[C@@H]1CCCN1C(=O)[C@@H]1CCCN1C(=O)[C@H](CCCCN)NC(=O)[C@H](CC(=O)O)NC(=O)[C@@H](N)C(C)C)C(=O)N[C@@H](Cc1ccc(O)cc1)C(=O)N[C@@H](CC(N)=O)C(=O)N[C@@H](Cc1cnc[nH]1)C(=O)NCC(=O)O [VDKPPYLPRPRPPRRIYNHG]

MIC (Streptococcus mutans): 31.8 µM (≈ 44.7 µg/mL)
Compound: CC[C@H](C)[C@H](NC(=O)[C@H](CCCCN)NC(=O)[C@H](CC(C)C)NC(=O)[C@H](CC(C)C)NC(=O)[C@H](CCC(N)=O)NC(=O)[C@H](CCCCN)NC(=O)[C@@H](N)C(C)C)C(=O)N[C@@H](Cc1ccccc1)C(=O)N[C@@H](CC(N)=O)C(=O)N[C@@H](CCCN=C(N)N)C(=O)N[C@@H](Cc1ccccc1)C(N)=O [VKQLLKIFNRF]

MIC (Streptococcus mutans): ≥ 44.6 µM
Compound: CC[C@H](C)[C@H](NC(=O)[C@H](Cc1cnc[nH]1)NC(=O)[C@H](CC(C)C)NC(=O)[C@H](CC(C)C)NC(=O)[C@@H](NC(=O)[C@H](CCCCN)NC(=O)[C@@H](N)C(C)C)[C@@H](C)O)C(=O)N[C@@H](Cc1ccccc1)C(=O)N[C@@H](CCC(N)=O)C(=O)N[C@@H](CCCN=C(N)N)C(=O)N[C@@H](Cc1ccccc1)C(N)=O [VKTLLHIFQRF]
